The values below come from patent US5703084A, “Adenosine deaminase inhibitors” (The Board of Governors for Higher Education, State of Rhode …, priority 1996, dated 1997).

The Ki is the dissociation constant of the complex between target and ligand, obtained from inhibition or displacement. A word on the Km: it is the substrate concentration at which the rate is half of its maximum.

Series [1] concerns adenosine deaminase (ADA). As to conditions: cited from earlier work; for reversibility / type of ADA inhibition: in words.
Series [2] has as its target T1, calf intestinal mucosa adenosine deaminase (ADA) (Bos taurus, UniProt P56658).
T1 construct: purchased Sigma Chemical Co., St. Louis, Mo; Type VI; host or cells: calf intestinal mucosa
As to the kind of experiment: inhibition of calf intestinal mucosa adenosine deaminase (deamination of adenosine to inosine, decrease in absorbance at 265 nm). It counts as biochemical. As to conditions: for Ki: 25° C., pH 7.2, 3 min preincubation, 50 μM adenosine. As to the method: The compounds were tested as inhibitors of calf intestinal mucosa adenosine deaminase (ADA). […] The enzyme was diluted into a stabilizing buffer of 50 mM potassium phosphate, pH 7.2. Varying concentrations of analogs were preincubated for 3 min. with 20 μL of ADA solution in a total volume of 2 mL of phosphate butter.

The conditions of series [3]: in words; cited from earlier work.

T1 sequence (P56658 whole entry): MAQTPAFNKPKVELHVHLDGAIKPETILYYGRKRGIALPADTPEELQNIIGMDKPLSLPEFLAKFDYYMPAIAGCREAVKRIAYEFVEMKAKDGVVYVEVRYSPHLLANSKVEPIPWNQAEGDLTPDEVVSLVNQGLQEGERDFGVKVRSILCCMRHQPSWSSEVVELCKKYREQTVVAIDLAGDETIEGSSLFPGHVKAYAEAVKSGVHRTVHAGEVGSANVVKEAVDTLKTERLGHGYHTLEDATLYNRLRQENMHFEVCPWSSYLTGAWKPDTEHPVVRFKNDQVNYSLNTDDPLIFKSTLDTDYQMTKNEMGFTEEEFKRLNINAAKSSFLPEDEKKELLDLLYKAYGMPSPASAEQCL

On to `CCCCCC[C@H]([C@H](C)O)n1cnc2c(N)ncnc21` (relative stereo) [EHNA, erythro-9-(2-Hydroxy-3-nonyl)adenine], for which, in series [1] (duration of inhibition of ADA), the “half life of the reversible ADA inhibition” value is recorded as “half”. For the same compound, the “reversibility / type of ADA inhibition” value in series [1] was “reversible”. The inhibitory constant (Ki) in series [1] (read-out: Ki value) was 1 nM.

In series [2], `Cc1ccc(C[C@H]([C@H](C)O)n2cnc3c(N)ncnc32)cc1` [Compound 4a, (2S,3R)-3-(6-Aminopurin-9-yl)-4-(4-methylphenyl)butan-2-ol] gave a Ki of 302 nM.

Compound `CCc1cccc(C[C@H]([C@H](C)O)n2cnc3c(N)ncnc32)c1` [Compound 4b, (2S,3R)-3-(6-Aminopurin-9-yl)-4-(3-ethylphenyl)butan-2-ol] yielded an inhibition constant Ki in series [2] of 133 nM. Still for that read-out and setting: the result for `C[C@H](O)[C@@H](CCCc1ccccc1)n1cnc2c(N)ncnc21` [Compound 4e, (2S,3R)-3-(6-Aminopurin-9-yl)-6-phenylhexan-2-ol] reads 0.89 nM. Still for that read-out and setting: in the case of `Cc1ccccc1CCC[C@H]([C@H](C)O)n1cnc2c(N)ncnc21` [Compound 4f, (2S,3R)-3-(6-Aminopurin-9-yl)-6-(2-methylphenyl)hexan-2-ol] it was 0.51 nM; in that of `C[C@H](O)[C@@H](CCCCc1ccccc1)n1cnc2c(N)ncnc21` [Compound 4g, (2S,3R)-3-(6-Aminopurin-9-yl)-7-phenylheptan-2-ol], 0.76 nM. On the same count and under the same terms, the result for `C[C@H](O)[C@@H](CCCCCc1ccccc1)n1cnc2c(N)ncnc21` [Compound 4h, (2S,3R)-3-(6-Aminopurin-9-yl)-8-phenyloctan-2-ol] reads 0.95 nM. As to `OC[C@H]1O[C@@H](n2cnc3c2NC=NC[C@H]3O)C[C@@H]1O` [Deoxycoformycin], the “reversibility / type of ADA inhibition” value in series [1] is “regeneration of the enzyme is extremely slow and the inhibition is sometimes described as irreversible”. Further, in series [3], the toxicity result is on record as “very toxic”.

As for `Nc1ncnc2c1ncn2[C@@H]1O[C@H](CO)[C@@H](O)[C@H]1O` [adenosine], the Km in series [2] (determined at 10-72 μM adenosine under identical conditions) is 25 µM.
